# Measurements: patent publication US7041652B1, “Ascorbate-isoquercetin compositions” (Merck Patent GmbH, priority 1999, dated 2006)
# “Also recorded” adds a separate entry of the source.
# Experiments:
# [1] = intestinal absorption of isoquercetin; format: in vivo; details: human intestinal tract; compared with rutin and quercetin aglycone
# Excerpt: Therefore, the increased effectivity of ascorbate protectioin may be caused by the fact that isoquercetin contains a glucose molecule. This glucose molecule seems to be the reason why isoquercetin is able to use the sodium-dependent glucose transport pathway of the intestinal brush-border membrane in its absorption process (Gee et al., 1998).
# [2] = earlier pharmacokinetic studies (Hollman and Katan, 1997; Hollman, 1997); cited from earlier work
smiles,measurement,setting,value
"O=c1c(O[C@@H]2O[C@H](CO)[C@@H](O)[C@H](O)[C@H]2O)c(-c2ccc(O)c(O)c2)oc2cc(O)cc(O)c12 [isoquercetin, quercetin-3-O-glucoside]",absorption,[1],better than that of pure aglycone; also recorded: far better absorption rates in human intestinal tract than rutin or the quercetin aglycone
same,absorption rate and bioavailability,[2],excellent absorption rate and bioavailability; also recorded: absorbed better than rutin and quercetin
